Literature values, collected in patent US20120061267A1, “MediTowel Anti-Fungal Wipe” (priority 2010, published 2012).
Structures can show the parent of a compound that is named as a salt.

How the values were obtained:
squalene epoxidase = conditions: in the cells of fungi
[1] = test system: Trichophyton mentagrophytes; conditions: at a low concentration

CN(C/C=C/C#CC(C)(C)C)Cc1cccc2ccccc12 [Terbinafine hydrochloride]
inhibition of squalene epoxidase (squalene epoxidase): selectively inhibits
fungicidal effect on sterilizing germinated conidium [1]: fungicidal effect
